Patent US20210205323A1, “MAINTENANCE THERAPY OF A PARP INHIBITOR IN TREATING GASTRIC CANCER” (BEIGENE, LTD., priority 2018, published 2021)

Columns and labels:
[1] = system: gastric cancer; conditions: olaparib added to second-line chemotherapy with paclitaxel; phase III; cited from earlier work
[2] = system: BBGA087 patient derived gastric cancer xenograft; assay: Pamiparib as maintenance therapy after oxaliplatin + 5-FU treatment in the xenograft model; assay type: in vivo, female nod-scid mice
Procedure: (§1) Female nod-scid mice were subcutaneously implanted with BBGA087 patient derived gastric tumor tissue fragments (3×3×3 mm3) in the right flank. After inoculation, tumor volume and body weight were measured twice weekly and calculated using the formula: V=0.5×(a×b2) where a and b were the long and short diameters of the tumor, respectively. When the average tumor size reached 200 mm3, animals were randomly assigned into 3 groups. Animals were treated with vehicle (0.5% methylcellulose, 0.5% MC), pamiparib, oxaliplatin plus 5-Fluorouracil (5-FU), respectively. BGB290 was administered at 6 mg/kg by oral gavage (p.o.) twice daily (BID), oxaliplatin was administered by intraperitoneal (i.p.) injection once per week (QW) for three weeks, and 5-FU was administered by intraperitoneal (i.p.) injection once daily with 5 days per week.
After 28 days, mice treated with oxaliplatin and 5-FU were reallocated into 2 groups according to the tumor volume, and were treated with either placebo (0.5% MC) or pamiparib as maintenance therapy.
(§2) Data is presented as mean tumor volume+standard error of the mean (SEM). Tumor growth inhibition (TGI) is calculated using the following formula: […]

[3] = system: PBMCs; assay: Clinical pharmacodynamic target modulation in PBMCs; assay type: in vivo; conditions: in the clinic; recommended Phase 2 dose 60 mg BID
[4] = system: BBGA087 patient derived gastric cancer xenograft; assay: Efficacy of pamiparib and oxaliplatin + 5-FU on tumor growth in a patient derived gastric cancer xenograft; assay type: in vivo, female nod-scid mice; conditions: BBGA087 model, pamiparib 6 mg/kg p.o. BID
Procedure: as §1, §2

Row | Structure (SMILES) | overall survival (OS) compared with paclitaxel and placebo [1] | Mean Tumor Volume on Day 32 ([2]; maintenance therapy 6 mg/kg BID after 28 days of oxaliplatin + 5-FU, Day 32) | TGI (%) on Day 32 ([2]; maintenance therapy 6 mg/kg BID after 28 days of oxaliplatin + 5-FU, versus placebo (0.5% MC), Day 32) | tumor relapse on maintenance therapy ([2]; pamiparib 6 mg/kg BID as maintenance versus placebo (0.5% MC) after oxaliplatin + 5-FU) | dose level achieving maximum pharmacodynamic target modulation in PBMCs [3] | Mean Tumor Volume on Day 28 ([4]; oxaliplatin 5 mg/kg + 5-FU 15 mg/kg i.p.) | TGI (%) on Day 28 ([4]; oxaliplatin 5 mg/kg i.p. QW*3 plus 5-FU 15 mg/kg i.p. QD*5/week*3)
1 | O=C(c1cc(Cc2n[nH]c(=O)c3ccccc23)ccc1F)N1CCN(C(=O)C2CC2)CC1 [olaparib] | failed to improve overall survival |  |  |  |  |  | 
2 | C[C@]12CCCN1CC1=NNC(=O)c3cc(F)cc4[nH]c2c1c34 [pamiparib] |  | 222 mm3 | 96% | tumor relapse was delayed | 10 mg BID | 921 mm3 | 42%
